Results from paper PMC5899833, “Population pharmacokinetics/pharmacodynamics of micafungin against Candida species in obese, critically ill, and morbidly obese critically ill patients” (Critical Care, 2018).
Like-named read-outs stand apart in the source and are kept apart here. Starred links: 1 amine or outer side, 2 acyl side, 3 side chain; linkers in the order of their positions; H or OH if unused. Positions of bridges follow the written chain, without caps; N, C: chain ends. Non-standard residues stand in square brackets, D forms with d. Residues, ends and D or L forms follow the SMILES beside them. *: point of attachment. hTyr(3S-OH,4S-OH,3'-OSO3H) = N[C@H](C(=O)O)[C@H](O)[C@@H](O)c1ccc(O)c(OS(=O)(=O)O)c1; Orn(4R-OH,5R-OH) = O=C([C@H](C[C@@H](O)[C@@H](O)N[*:3])N[*:1])[*:2]; Pro(3S-OH,4S-Me) = C[C@H]1CN[C@H](C(=O)O)[C@H]1O; X1 = CCCCCOc1ccc(-c2cc(-c3ccc(C(=O)*)cc3)no2)cc1; Gln(3R-OH) = NC(=O)C[C@@H](O)[C@H](N)C(=O)O; Hyp = O=C(O)[C@@H]1C[C@@H](O)CN1

Test: Population pharmacokinetic model of total plasma micafungin in patients
Assay type: in vivo, human
Conditions: 31 patients; for clearance: human
Experimental: A pharmacokinetic study was carried out in patients under micafungin empirical or directed treatment for invasive candidiasis. The population consisted of 11 morbidly obese critically ill adult patients (from the Hospital Universitario La Paz, Madrid, Spain), 10 nonobese critically ill patients, and 10 obese noncritically ill patients (from the Hospital del Mar, Barcelona, Spain). Patients admitted to ICUs were those considered to be critically ill. The study protocol was approved by the Ethics Committee of the Hospital La Paz (Madrid, Spain) and the Hospital del Mar (Barcelona, Spain). Written informed consent was obtained from patients (or relatives if the patient was unable to provide due to their critical situation) before blood sampling.
Demographic and clinical data prior to initiation of antifungal treatment were collected. Severity (Simplified Acute Physiology Score (SAPS) II), Sequential Organ Failure Assessment (SOFA) score, and risk for invasive candidiasis (Candida score) (except for patients with microbiologically documented infections) were calculated. Patients received dosage regimens of once-daily 100 mg or 150 mg micafungin (Astellas Pharma S.A., Spain) diluted in 100 ml isotonic saline solution that was intravenously infused over 60 min at the discretion of the treating physician (following the prescribing information and hospital treatment guidelines). On day 3, blood samples were collected at baseline (predose) and after 1, 3, 5, 8, 18, and 24 h. Additional blood samples at day 0 and day 7 were collected when feasible.
Total micafungin concentrations in plasma were measured by a validated ultra-high-performance liquid chromatography (UHPLC)-tandem mass spectrometry (MS/MS) method, from 0.2 to 30 μg/ml, on a Shimadzu Nexera 2 UHPLC system coupled to a Shimadzu 8030+ triple quadruple mass spectrometer (Shimadzu, Kyoto, Japan). Clinical samples were assayed alongside plasma calibrators and quality controls and met batch acceptance criteria.
To describe total micafungin concentrations, one- and two-compartment models were developed with the nonparametric adaptive grid algorithm within the freely available Pmetrics software package for R (Los Angeles, CA, USA). Elimination from the central compartment, and intercompartmental distribution into the peripheral compartment (two-compartment model), were modeled as first-order processes. The discrimination between different models resulted from the comparison of the −2 log-likelihood (−2LL). A p value of < 0.05 was considered statistically significant.
Age, gender, body weight, body mass index (BMI), Acute Physiology and Chronic Health Evaluation (APACHE) II, serum creatinine concentration, measured creatinine clearance, Cockroft-Gault estimated creatinine clearance, and serum albumin concentration were evaluated as covariates. Covariate selection was performed using a stepwise linear regression from R on all covariates and Bayesian posterior parameters. Potential covariates were separately entered into the model and statistically tested by use of the –2LL values.
Goodness-of-fit was assessed by linear regression, with an observed-predicted plot, coefficients of determination, and LL values. Predictive performance evaluation was based on mean error of prediction (bias) and mean bias-adjusted squared error of prediction (imprecision) of the population and individual prediction models. The internal validity of the population pharmacokinetic model was assessed by the bootstrap resampling method (n = 1000) and normalized prediction distribution errors (NPDE). Using a visual predictive check method, parameters obtained from the bootstrap method were plotted with the observed concentrations. NPDE plots were checked for normal distribution characteristics and trends in data errors. […]

[1] = final two-compartment covariate population PK model, 100 or 150 mg once daily iv
[2] = final two-compartment covariate population PK model, 100 or 150 mg once daily iv, SD

CCCCCOc1ccc(-c2cc(-c3ccc(C(=O)N[C@H]4C[C@@H](O)[C@@H](O)NC(=O)[C@@H]5[C@@H](O)[C@@H](C)CN5C(=O)[C@H]([C@H](O)CC(N)=O)NC(=O)[C@H]([C@H](O)[C@@H](O)c5ccc(O)c(OS(=O)(=O)O)c5)NC(=O)[C@@H]5C[C@@H](O)CN5C(=O)[C@H]([C@@H](C)O)NC4=O)cc3)no2)cc1 [micafungin] (X1-[Orn(4R-OH,5R-OH)]T[Hyp][hTyr(3S-OH,4S-OH,3'-OSO3H)][Gln(3R-OH)][Pro(3S-OH,4S-Me)]; lactam 1-C)
Central volume, median [1]: 16.34 L | kcp, median [1]: 0.26 h⁻¹ | kpc, median [1]: 0.14 h⁻¹ | Central volume, mean ± SD [2]: 16.34 ± 5.87 L | kcp (rate constant central to peripheral compartment), mean ± SD [2]: 0.38 ± 0.37 h⁻¹ | kpc (rate constant peripheral to central compartment), mean ± SD [2]: 0.32 ± 0.31 h⁻¹ | clearance (plasma, iv, final two-compartment covariate population PK model, 100 or 150 mg once daily iv, read-out: Clearance, median (converted)): 12.2 mL/min | clearance (final two-compartment covariate population PK model (weight, age on CL), 100 or 150 mg once daily iv over 60 min, 242 total plasma concentrations, UHPLC-MS/MS, SD, read-out: Clearance, mean ± SD (converted)): 13.3 mL/min
